Measurements as given in patent publication US8575161B2, “Benzofurane, benzothiophene, benzothiazol derivatives as FXR modulators” (Merck Patent GmbH, priority 2008, dated 2013).

Target: T1, human Farsenoid X Receptor ligand binding domain - GST fusion protein (GST-FXR LBD) (Homo sapiens, UniProt Q96RI1)
T1 construct: Human FXR-LBD (amino acid 248-476); made in house; host or cells: E. coli BL21
T1 sequence (Q96RI1 248-476 isoform Q96RI1-1): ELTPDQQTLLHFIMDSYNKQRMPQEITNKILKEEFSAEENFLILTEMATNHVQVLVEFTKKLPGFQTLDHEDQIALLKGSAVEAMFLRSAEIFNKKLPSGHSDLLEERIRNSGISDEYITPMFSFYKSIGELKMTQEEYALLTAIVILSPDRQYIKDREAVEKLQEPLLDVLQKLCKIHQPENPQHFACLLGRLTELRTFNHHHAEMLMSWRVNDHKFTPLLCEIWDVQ
Experiment: FXR-SRC-1 Cofactor Recruitment Assay (time-resolved fluorescence energy transfer)
Format: biochemical
Settings: SRC-1 peptide recruitment, 1 hour at room temperature
From the text: BIOLOGICAL EXPERIMENTS FXR-SRC-1 Cofactor Recruitment Assay
GST-LBD is labelled with a europium chelate (donor) via a europium-tagged anti-GST antibody, and the co-activator peptide is labelled with allophycocyanin-APC (acceptor) via a streptavidin-biotin linkage.
In the presence of an agonist for the nuclear receptor, the peptide is recruited to the GST-LBD, bringing europium and allophycocyanin into close proximity to enable energy transfer from the europium chelate to the allophycocyanin. Upon excitation of the complex with light at 340 nm, excitation energy absorbed by the europium chelate is transmitted to the allophycocyanin moiety resulting in emission at 665 nm. […] The activity of a nuclear receptor agonist can be measured by determining the ability of a compound to bind the nuclear receptor in this test (EC50) and compare to the ability of reference compound to bind this same nuclear receptor. […]
A mix without peptide (same than peptide mix were peptide was replaced by water) was also set-up and for each compound (each concentration tested) a basal fluorescence level was determined in order to detect self-fluorescent compounds. […]
Plates were incubated 1 hour at room temperature and fluorescence was read on a time resolved mode on a Wallac/Perkin Elmer Victor2 counter.
For each compound concentration, fluorescent signal ratio: F665/F615×1000 was calculated. […]

O=C(O)c1cc2c(Br)c(N3CCC(N(C(=O)C4CC4)c4ccc(Cl)cc4Cl)CC3)ccc2o1 [Example 165, 4-Bromo-5-{4-[cyclopropanecarbonyl-(2,4-dichloro-phenyl)-amino]-piperidin-1-yl}-benzofuran-2-carboxylic acid]
EC50: 106 nM
